Values joined by “and” are separate entries in the source; they are usually repeats but may differ in a detail not shown here. Identical values can stand only once. “Also recorded” adds a separate entry of the source.
How the values were obtained:
[1] = test system: chemically competent DH5 alpha E. coli cells; assay: Mock ligation with supercoiled pUC19 DNA and transformation (control); format: cell-based; conditions: 12% 1,2-PrD; for Transformants from 2 pg SC DNA: supercoiled pUC19
Description: For chemically competent cell transformations, the cell-DNA mixture was incubated on ice for 30 min, heat-shocked at 42° C. for 30 sec, then returned to ice for 5 min. A volume of 950 μl SOC medium (2% vegetable peptone or Tryptone, 0.5% yeast extract, 10 mM NaCl, 2.5 mM KCl, 10 mM MgCl2, 10 mM MgSO4 and 20 mM glucose) was added to the cell-DNA mixture, followed by a one hr 37° C. outgrowth period with agitation. A volume of 25-50 μl of appropriately diluted cells in SOC was spread onto Rich Agar plates (composition per liter: 10 g soy peptone, 5 g yeast extract, 10 g NaCl, 1 g MgCl2-6H2O, 1 g dextrose, 15 grams agar) supplemented with 100 μg/ml ampicillin. Plates were inverted and incubated for 16 hrs at 37° C., followed by quantification of total colony numbers.
Mock DNA ligations were set up with 1 ng of supercoiled pUC19 DNA in 1× regular DNA ligase buffer in the presence and absence of 2000 units T4 DNA ligase and with or without 12% 1,2-PrD. Ligation reactions were conducted using the standard protocol in Example 1 and transformations with chemically competent DH5 alpha E. coli cells. 40 μl of a 1:20 dilution of the 1 ml SOC outgrowth containing 2 pg supercoiled DNA was plated onto agarose plates and incubated overnight.
This illustrates the enhancement is at the ligation step and not the transformation step.

T4 DNA ligase [2] = molecular target: T1, T4 DNA ligase (Enterobacteria phage T4, UniProt P00970); assay: Ligase activity titer assay with blunt-ended PhiX174-HaeIII fragments, agarose gel; format: biochemical; design: purchased NEB (New England Biolabs), Ipswich, Mass. #M0202; conditions: 6% 1,2-PrD, two-fold ligase dilution series, 30 min 25 C
T1 sequence (P00970 1-487): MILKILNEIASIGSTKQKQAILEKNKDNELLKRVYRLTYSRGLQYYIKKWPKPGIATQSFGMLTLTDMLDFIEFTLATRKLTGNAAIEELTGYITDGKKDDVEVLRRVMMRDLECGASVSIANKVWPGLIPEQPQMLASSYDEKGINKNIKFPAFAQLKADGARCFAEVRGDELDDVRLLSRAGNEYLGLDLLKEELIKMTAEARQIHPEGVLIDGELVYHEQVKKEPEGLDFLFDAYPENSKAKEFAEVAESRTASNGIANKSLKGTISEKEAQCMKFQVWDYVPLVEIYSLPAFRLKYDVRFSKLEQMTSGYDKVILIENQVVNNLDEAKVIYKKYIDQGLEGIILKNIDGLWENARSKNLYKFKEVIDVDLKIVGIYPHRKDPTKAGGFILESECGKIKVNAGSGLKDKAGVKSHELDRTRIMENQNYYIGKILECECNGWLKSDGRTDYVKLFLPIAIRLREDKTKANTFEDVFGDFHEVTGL
Description: The ligase activity in the absence and presence of 6% 1,2-PrD was determined in a two-fold ligase dilution series. The symbol “*” denotes equivalent levels of ligation, showing that ligation efficiency was enhanced 4-fold. The first and last lanes contain DNA markers.
The effectiveness of the ligation enhancer was also established for blunt-ended DNA as follows: 20 μl reactions were set up containing two-fold serial dilutions of 2000 units of T4 DNA ligase, 200 ng PhiX174-HaeIII digest (NEB, Ipswich, Mass., #N3026), and regular ligase buffer with 200 ng phiX174-HaeIII blunt-ended fragments per 20 μl, in the absence and presence of 6% 1,2-PrD. The reactions were incubated for 30 min at room temperature (25° C.) followed by electrophoresis on a 1% agarose gel. 1,2-PrD enhanced T4 DNA ligase activity 4-fold in this titer reaction.

T4 DNA ligase [3] = molecular target: T1, T4 DNA ligase; assay: Recircularization of AhdI-linearized pUC19 and transformation of NEB Turbo cells (FIGS. 1A-C); format: biochemical; design: purchased NEB (New England Biolabs), Ipswich, Mass. #M0202; conditions: 0, 4%, 6% 1,2-PrD, 400 U T4 DNA ligase, 20 min 16 C
From the text: FIGS. 1A-C show the results of recircularization through ligation of double-stranded linearized plasmid DNA in the presence of increasing amounts of 1,2-PrD. The ligated DNA is subsequently transformed into competent E. coli cells, followed by plating on agar ampicillin selection plates. The extent of successful transformation is illustrated by the numbers of colonies on the plate.
Linearization of the pUC19 plasmid was achieved using AhdI to generate single-base overhangs as described in FIG. 3A. Ligation of the cleaved DNA was performed in a 20 μl ligation reaction containing 100 ng of DNA in the presence and absence of 1,2-PrD and 400 U of T4 DNA ligase was incubated for 20 min at 16° C., then heated to 65° C. for 45 min to inactivate the ligase. Transformation of cells with the ligated DNA was performed using chemically competent NEB Turbo™ cells (NEB, Ipswich, Mass., #C2984H) as described in Example 1 using 2 μl of the ligation mix (containing 10 ng DNA) with an outgrowth period of 20 min.

T4 DNA ligase [4] = molecular target: T1, T4 DNA ligase; assay: Ligation efficiency assay (standard assay, various ligases and buffers); format: biochemical; design: purchased NEB (New England Biolabs), Ipswich, Mass. #M0202; conditions: 1%-12% 1,2-PrD; various concentrations and types of DNA ligase, regular and Quick Ligase buffers
Description: The reaction mixtures contained DNA at 50-100 ng and 1,2-PrD at different concentrations. 1 μl of regular concentration (NEB, Ipswich, Mass., #M0202; 400 units) or 1 μl of high concentration T4 DNA ligase (NEB, Ipswich, Mass., #M0202; 2000 units) was then added to a final volume of 21 μl in 1×T4 DNA Ligase Buffer (NEB, Ipwich, Mass., #B0202) or 1× Quick Ligase™ Buffer (NEB, Ipswich, Mass., #B2200).
A standard assay uses 100 ng DNA, 1 μl of T4 DNA ligase, 21 μl 1×T4 DNA ligase buffer and varying amounts of enhancer.
Ligation reactions were incubated for 10 min at room temperature (25° C.) unless otherwise stated, then placed on ice for 2 min. In some experiments the ligase was heat-killed by incubation at 65° C. for 20 min. The ligation reactions were analyzed by 1% agarose gel electrophoresis to identify DNA species and determine the efficiency of […].

SMILES: CC(O)CO (stereo not drawn) [1,2-PrD, 1,2-propanediol]
- Transformants from 2 pg SC DNA ([1]; 2000 U T4 DNA ligase, duplicate reactions): 82 and 73
- Transformants from 2 pg SC DNA ([1]; T4 DNA ligase none): 126
- Effect on transformation with supercoiled pUC19 DNA ([1]; with or without T4 DNA ligase): not statistically altered; also recorded: does not affect nor interfere with transformation
- Enhancement of T4 DNA ligase activity (ligation efficiency) in titer reaction (T4 DNA ligase [2]): 4 fold
- Transformation levels (number of colonies) (T4 DNA ligase [3]): the greater the number of transformants; also recorded: increased transformation levels
- Enhancement of ligation (T4 DNA ligase [4]): consistent enhancement of ligation

From patent US9499811B2, “Ligation enhancement” (New England Biolabs, Inc., priority 2011, dated 2016)
